These results are taken from patent publication US20020197244A1, “Compositions and methods for regulating phagocytosis and ICAM-1 expression” (priority 1998, published 2002).

Common to all, as to type: cell-based
One test has as its system MelanoDerm equivalents. Put plainly: Pigmentation in melanocyte-containing epidermal equivalents. As to conditions: keratinocyte-melanocyte contact. On the procedure: (§1) Since PAR-2 is expressed in keratinocytes, but not in melanocytes, the possible requirement of keratinocyte-melanocyte contact was tested for the effect of Compound I and SLIGRL on melanosome phagocytosis by the keratinocytes. Primary melanocyte cultures (commercially available from Clonetics, San Diego) were plated under epidermal equivalents (EpiDerm, of MatTek, Ashland, Mass.) to create an equivalent-monolayer co-culture with no contact between keratinocytes and melanocytes. These co-cultures were compared to MelanoDerm equivalents (of MatTek), where melanocytes are present in the basal layer of the equivalent. Cultures were treated with Compound I, with the […], and with the PAR-2 agonist SLIGRL. As set forth in Table 3, keratinocytes are indicated by “K”, melanocytes are indicated by “M”, and lack of keratinocyte-melanocyte contact is indicated as “no K-M cont”. […] The same result was also observed with monolayer keratinocyte/melanocyte co-cultures having keratinocyte/melanocyte contact.

In test [1] the test system is melanocyte cultures plated under epidermal equivalents (EpiDerm). Put plainly: Pigmentation in equivalent-monolayer co-culture (no K-M contact). As to conditions: no keratinocyte-melanocyte contact. The procedure:
as §1

The subject of test [2] is monolayer keratinocyte/melanocyte co-cultures. As to the kind of experiment: Pigmentation in monolayer keratinocyte/melanocyte co-cultures (K-M contact). The note with it: keratinocyte-melanocyte contact. On the procedure:
as §1

Another test deals with Human PMN cells. Put plainly: PMN chemotactic migration towards FMLP, Boyden chamber. The procedure:
Since ICAM-1 is involved in cell migration, cell migration towards a chemotactic peptide was studied in cells treated with Compound I and STI. Human PMN cells were placed in one side of a Boyden chamber, using standard techniques, and a chemotactic peptide (FMLP) was placed in the other chamber. Cells were allowed to migrate into the second chamber, and the number of migrating cells per field and distance of migration were calculated. The experiment was repeated with PMN cells pretreated with one of the following: 5 or 0.5 mg/ml STI, 1 or 0.1 μM Compound I, a buffer vehicle, and with and without chemotactic peptide. The number of cells per field that migrated the same distance as the untreated control was measured. Without the peptide and with no treatment, an average of 19 cells/field were migrating a distance of 80 microns. […] In other words, no cells (or less than 5/field) were identified at 115 microns. […] The ability to inhibit PMN migration is an important constituent of anti-inflammatory compounds.

Turning to TFLLRNPNDK [printed as PAR-2 agonist], the “level of pigmentation, Epidermal Equivalents (K-M cont.)” value with MelanoDerm equivalents is “no effect”. For the same substance, in test [1], the “level of pigmentation, Equivalent Monolayer Co-culture (no K-M cont.)” value is listed as “no effect”. In test [2], the “level of pigmentation, Mono-Layer Co-Cultures (K-M cont.)” value is reported as “no effect”.
On to FMLP [reference compound], for which the “Migration (distance)” value with Human PMN cells (buffer without peptide: 80 μ) was 115 μ. Besides, the Cells/Field in the test with Human PMN cells (cells counted at 115 microns, PMN pretreated with 5 or 0.5 mg/ml STI or 1 or 0.1 μM Compound I, buffer without FMLP: 19 at 80 μ) stood at 41 cells/field.
